Drawing on patent publication EP4755888A1 (ILAb Co., Ltd., priority 2023, dated 2025), this text covers IC50 for 21 compounds.

This assay addresses PD-1/PD-L1 (Homo sapiens, UniProt Q9NZQ7). Kind of assay: TR-FRET PD-1/PD-L1 binding inhibition at the molecular level (free proteins). As to conditions: Tag1-PD-L1 and Tag2-PD-1 proteins, twelve concentrations from 200 nM, 2 hours at room temperature, read-out: FRET assay (IC50). Put shortly:
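HTRF read-out at 665/620 nm after 2 h at room temperature. Detection used anti-Tag1 Eu cryptate plus anti-Tag2 XL665 antibodies. Tagged PD-L1 and PD-1 proteins were pre-mixed with compound across twelve […] 1:2 dilutions starting at 200 nM.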

Sequence of PD-1/PD-L1 (Q9NZQ7 19-238 limits assumed): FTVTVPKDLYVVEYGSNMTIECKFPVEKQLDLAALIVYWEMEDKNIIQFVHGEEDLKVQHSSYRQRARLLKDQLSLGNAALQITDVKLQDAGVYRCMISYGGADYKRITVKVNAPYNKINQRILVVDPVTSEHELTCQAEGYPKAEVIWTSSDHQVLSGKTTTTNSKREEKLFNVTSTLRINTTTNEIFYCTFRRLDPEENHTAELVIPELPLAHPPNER

As for `O=C(Nc1cccc(-c2cccc(NC(=O)c3cc4n(n3)CCCC4N3CC[C@@H](C(=O)O)C3)c2Cl)c1Cl)c1ccc(CNCCO)cn1` (stereo partly drawn) [Compound 86, (3R)-1-(2-((2,2'-dichloro-3'-(5-(((2-hydroxyethyl)amino)methyl)picolinamido)-[1,1'-biphenyl]-3-yl)carbamoyl)-4,5,6,7-tetrahydropyrazolo[1,5-a]pyridin-4-yl)pyrrolidine-3-carboxylic acid], the IC50 was under 10 nM.
For `O=C(Nc1cccc(-c2cccc(NC(=O)c3cc4n(n3)CCCC4N3CCC(O)CC3)c2Cl)c1Cl)c1ccc(CNCCO)cn1` (stereo not drawn) [Compound 87, N-(2,2'-dichloro-3'-(5-(((2-hydroxyethyl)amino)methyl)picolinamido)-[1,1'-biphenyl]-3-yl)-4-(4-hydroxypiperidin-1-yl)-4,5,6,7-tetrahydropyrazolo[1,5-a]pyridine-2-carboxamide], the IC50 was 10 to 100 nM.
With `O=C(Nc1cccc(-c2cccc(NC(=O)c3cc4n(n3)CCCC4N3CCC(C(=O)O)CC3)c2Cl)c1Cl)c1ccc(CNCCO)cn1` (stereo not drawn) [Compound 88, 1-(2-((2,2'-dichloro-3'-(5-(((2-hydroxyethyl)amino)methyl)picolinamido)-[1,1'-biphenyl]-3-yl)carbamoyl)-4,5,6,7-tetrahydropyrazolo[1,5-a]pyridin-4-yl)piperidine-4-carboxylic acid] the figure was under 10 nM; with `O=C(O)CNC1CCCn2nc(C(=O)Nc3cccc(-c4cccc(NC(=O)c5ccc(CNCCO)cn5)c4Cl)c3Cl)cc21` (stereo not drawn) [Compound 89, 2-((2-((2,2'-dichloro-3'-(5-(((2-hydroxyethyl)amino)methyl)picolinamido)-[1,1'-biphenyl]-3-yl)carbamoyl)-4,5,6,7-tetrahydropyrazolo[1,5-a]pyridin-4-yl)amino)acetic acid], under 10 nM; with `CC(C)(NC1CCCn2nc(C(=O)Nc3cccc(-c4cccc(NC(=O)c5ccc(CNCCO)cn5)c4Cl)c3Cl)cc21)C(=O)O` (stereo not drawn) [Compound 90, 2-((2-((2,2'-dichloro-3'-(5-(((2-hydroxyethyl)amino)methyl)picolinamido)-[1,1'-biphenyl]-3-yl)carbamoyl)-4,5,6,7-tetrahydropyrazolo[1,5-a]pyridin-4-yl)amino)-2-methylpropanoic acid], under 10 nM.
With `Cc1c(NC(=O)c2ccc(CN3CC[C@@H](O)C3)cn2)cccc1-c1cccc(NC(=O)c2cc3n(n2)CCCC3NCCO)c1C` (stereo partly drawn) [Compound 91, 4-((2-hydroxyethyl)amino)-N-(3'-(5-(((R)-3-hydroxypyrrolidin-1-yl)methyl)picolinamido)-2,2'-dimethyl-[1,1'-biphenyl]-3-yl)-4,5,6,7-tetrahydropyrazolo[1,5-a]pyridine-2-carboxamide] the figure was under 10 nM; with `Cc1c(NC(=O)c2ccc(CN3CC[C@@H](O)C3)cn2)cccc1-c1cccc(NC(=O)c2cc3n(n2)CCCC3N2CC[C@@H](O)C2)c1C` (stereo partly drawn) [Compound 92, 4-((R)-3-hydroxypyrrolidin-1-yl)-N-(3'-(5-(((R)-3-hydroxypyrrolidin-1-yl)methyl)picolinamido)-2,2'-dimethyl-[1,1'-biphenyl]-3-yl)-4,5,6,7-tetrahydropyrazolo[1,5-a]pyridine-2-carboxamide], under 10 nM.
With `Cc1c(NC(=O)c2ccc(CN3CC[C@@H](O)C3)cn2)cccc1-c1cccc(NC(=O)c2cc3n(n2)CCCC3NC[C@@H]2CCC(=O)N2)c1C` (stereo partly drawn) [Compound 93, N-(3'-(5-(((R)-3-hydroxypyrrolidin-1-yl)methyl)picolinamido)-2,2'-dimethyl-[1,1'-biphenyl]-3-yl)-4-((((S)-5-oxopyrrolidin-2-yl)methyl)amino)-4,5,6,7-tetrahydropyrazolo[1,5-a]pyridine-2-carboxamide] the figure was under 10 nM.
As for `CC(=O)NCCNC1CCCn2nc(C(=O)Nc3cccc(-c4cccc(NC(=O)c5ccc(CN6CC[C@@H](O)C6)cn5)c4C)c3C)cc21` (stereo partly drawn) [Compound 94, 4-((2-acetamidoethyl)amino)-N-(3'-(5-(((R)-3-hydroxypyrrolidin-1-yl)methyl)picolinamido)-2,2'-dimethyl-[1,1'-biphenyl]-3-yl)-4,5,6,7-tetrahydropyrazolo[1,5-a]pyridine-2-carboxamide], the half-maximal inhibitory concentration (IC50) was under 10 nM.
With `Cc1c(NC(=O)c2ccc(CN3CC[C@@H](O)C3)cn2)cccc1-c1cccc(NC(=O)c2cc3n(n2)CCCC3NCC(=O)O)c1C` (stereo partly drawn) [Compound 95, 2-((2-((3'-(5-(((R)-3-hydroxypyrrolidin-1-yl)methyl)picolinamido)-2,2'-dimethyl-[1,1'-biphenyl]-3-yl)carbamoyl)-4,5,6,7-tetrahydropyrazolo[1,5-a]pyridin-4-yl)amino)acetic acid] the figure was under 10 nM; with `Cc1c(NC(=O)c2ccc(CN3CC[C@@H](O)C3)cn2)cccc1-c1cccc(NC(=O)c2cc3n(n2)CCCC3N2CC[C@@H](C(=O)O)C2)c1C` (stereo partly drawn) [Compound 96, (3R)-1-(2-((3'-(5-(((R)-3-hydroxypyrrolidin-1-yl)methyl)picolinamido)-2,2'-dimethyl-[1,1'-biphenyl]-3-yl)carbamoyl)-4,5,6,7-tetrahydropyrazolo[1,5-a]pyridin-4-yl)pyrrolidine-3-carboxylic acid], under 10 nM; with `O=C(Nc1cccc(-c2cccc(Nc3nccc4cc(CN5CC[C@H](O)C5)cnc34)c2Cl)c1Cl)c1cc2n(n1)CCCC2N1CCC(O)CC1` (stereo partly drawn) [Compound 97, N-(2,2'-dichloro-3'-((3-(((S)-3-hydroxypyrrolidin-1-yl)methyl)-1,7-naphthyridin-8-yl)amino)-[1,1'-biphenyl]-3-yl)-4-(4-hydroxypiperidin-1-yl)-4,5,6,7-tetrahydropyrazolo[1,5-a]pyridine-2-carboxamide], under 10 nM.
As to `Cc1c(NC(=O)c2ccc(CN3CC[C@@H](O)C3)cn2)cccc1-c1cccc(NC(=O)c2cc3n(n2)CCCC3N2CCC(C(=O)O)CC2)c1C` (stereo partly drawn) [Compound 98, 1-(2-((3'-(5-(((R)-3-hydroxypyrrolidin-1-yl)methyl)picolinamido)-2,2'-dimethyl-[1,1'-biphenyl]-3-yl)carbamoyl)-4,5,6,7-tetrahydropyrazolo[1,5-a]pyridin-4-yl)piperidine-4-carboxylic acid], the half-inhibitory concentration (IC50) is under 10 nM.
In the case of `Cc1c(NC(=O)c2ccc(CN3CC[C@@H](O)C3)cn2)cccc1-c1cccc(NC(=O)c2cc3n(n2)CCCC3NC(C)(C)C(=O)O)c1C` (stereo partly drawn) [Compound 99, 2-((2-((3'-(5-(((R)-3-hydroxypyrrolidin-1-yl)methyl)picolinamido)-2,2'-dimethyl-[1,1'-biphenyl]-3-yl)carbamoyl)-4,5,6,7-tetrahydropyrazolo[1,5-a]pyridin-4-yl)amino)-2-methylpropanoic acid] it was under 10 nM; in that of `O=C(Nc1cccc(-c2cccc(NC(=O)c3cc4n(n3)CCCC4NCCO)c2Cl)c1Cl)c1ccc(CN2CC[C@@H](O)C2)cn1` (stereo partly drawn) [Compound 100, N-(2,2'-dichloro-3'-(5-(((R)-3-hydroxypyrrolidin-1-yl)methyl)picolinamido)-[1,1'-biphenyl]-3-yl)-4-((2-hydroxyethyl)amino)-4,5,6,7-tetrahydropyrazolo[1,5-a]pyridine-2-carboxamide], under 10 nM.
As for `O=C(Nc1cccc(-c2cccc(NC(=O)c3cc4n(n3)CCCC4N3CC[C@@H](O)C3)c2Cl)c1Cl)c1ccc(CN2CC[C@@H](O)C2)cn1` (stereo partly drawn) [Compound 101, N-(2,2'-dichloro-3'-(5-(((R)-3-hydroxypyrrolidin-1-yl)methyl)picolinamido)-[1,1'-biphenyl]-3-yl)-4-((R)-3-hydroxypyrrolidin-1-yl)-4,5,6,7-tetrahydropyrazolo[1,5-a]pyridine-2-carboxamide], the 50% inhibitory concentration (IC50) lay within 10 to 100 nM.
Regarding `CC(=O)NCCNC1CCCn2nc(C(=O)Nc3cccc(-c4cccc(NC(=O)c5ccc(CN6CC[C@@H](O)C6)cn5)c4Cl)c3Cl)cc21` (stereo partly drawn) [Compound 103, 4-((2-acetamidoethyl)amino)-N-(2,2'-dichloro-3'-(5-(((R)-3-hydroxypyrrolidin-1-yl)methyl)picolinamido)-[1,1'-biphenyl]-3-yl)-4,5,6,7-tetrahydropyrazolo[1,5-a]pyridine-2-carboxamide], the half-inhibitory concentration (IC50) was under 10 nM.
As for `O=C(O)CNC1CCCn2nc(C(=O)Nc3cccc(-c4cccc(NC(=O)c5ccc(CN6CC[C@@H](O)C6)cn5)c4Cl)c3Cl)cc21` (stereo partly drawn) [Compound 104, 2-((2-((2,2'-dichloro-3'-(5-(((R)-3-hydroxypyrrolidin-1-yl)methyl)picolinamido)-[1,1'-biphenyl]-3-yl)carbamoyl)-4,5,6,7-tetrahydropyrazolo[1,5-a]pyridin-4-yl)amino)acetic acid], the 50% inhibitory concentration (IC50) is under 10 nM.
With `O=C(Nc1cccc(-c2cccc(NC(=O)c3cc4n(n3)CCCC4N3CC[C@@H](C(=O)O)C3)c2Cl)c1Cl)c1ccc(CN2CC[C@@H](O)C2)cn1` (stereo partly drawn) [Compound 105, (3R)-1-(2-((2,2'-dichloro-3'-(5-(((R)-3-hydroxypyrrolidin-1-yl)methyl)picolinamido)-[1,1'-biphenyl]-3-yl)carbamoyl)-4,5,6,7-tetrahydropyrazolo[1,5-a]pyridin-4-yl)pyrrolidine-3-carboxylic acid] the figure was under 10 nM; with `O=C(Nc1cccc(-c2cccc(NC(=O)c3cc4n(n3)CCCC4N3CCC(O)CC3)c2Cl)c1Cl)c1ccc(CN2CC[C@@H](O)C2)cn1` (stereo partly drawn) [Compound 106, N-(2,2'-dichloro-3'-(5-(((R)-3-hydroxypyrrolidin-1-yl)methyl)picolinamido)-[1,1'-biphenyl]-3-yl)-4-(4-hydroxypiperidin-1-yl)-4,5,6,7-tetrahydropyrazolo[1,5-a]pyridine-2-carboxamide], under 10 nM; with `O=C(Nc1cccc(-c2cccc(NC(=O)c3cc4n(n3)CCCC4N3CCC(C(=O)O)CC3)c2Cl)c1Cl)c1ccc(CN2CC[C@@H](O)C2)cn1` (stereo partly drawn) [Compound 107, 1-(2-((2,2'-dichloro-3'-(5-(((R)-3-hydroxypyrrolidin-1-yl)methyl)picolinamido)-[1,1'-biphenyl]-3-yl)carbamoyl)-4,5,6,7-tetrahydropyrazolo[1,5-a]pyridin-4-yl)piperidine-4-carboxylic acid], 10 to 100 nM.

By IC50 is commonly meant the concentration that inhibits the measured activity by half.
